Experimental data reported in patent US20260248763A1 (BIO GENUINE (SHANGHAI) BIOTECH CO., LTD, priority 2023, published 2026).
Like-named read-outs stand apart in the source and are kept apart here.

What was measured:
[1] = Blood-brain distribution determination in SD rats; format: in vivo; conditions: female SD rats, oral, 5 mg/kg; for Kp / AUC(0-t): rat; for Kp: brain/plasma, read-out: Brain/plasma exposure ratio; for AUC(0-t): plasma, read-out: Plasma area under the curve AUC0-t
Description: Test Example 4: Blood-Brain Distribution Determination in SD Rats
In this study, female SD rats were selected as test animals. The LC/MS/MS method was used to quantitatively determine the drug concentrations of the test compounds in plasma and brain tissues at three different time points (0.5 h, 2 h, 4 h or 6 h) after oral administration (5 mg/kg or 10 mg/kg) in rats, so as to evaluate the pharmacokinetic profile of the test drugs in rats.
(§1) The example compounds of the present disclosure, made in house.
(§2) SD rats (female, 180-220 g, 6-8 weeks old, purchased from Beijing Vital River Laboratory Animal Technology Co., Ltd., with animal production license number SCXK (Beijing) 2021-0006).
Vehicle for oral administration: 5% DMSO+95% PEG400 or a mixture of (50% Labrasol+50% Water).
The test compound, formulated as a clear solution or suspension, was administered to overnight-fasted SD rats via oral gavage. For oral gavage, blood samples (0.25 mL) were collected via jugular vein puncture at pre-dose (0 h) and 0.5 h, 2 h, 4 h or 6 h post-dose. The samples were placed into sodium heparin anticoagulant tubes. After collection, the blood samples were placed on wet ice and centrifuged within 1 hour to separate the plasma. The separated plasma was stored frozen in a −80° C. freezer. After blood collection, the animals were euthanized by cervical dislocation. The whole brain tissue was dissected out. The collected brain tissue was first rinsed with physiological saline, blotted dry with absorbent paper, and then stored frozen in a −80° C. freezer. Prior to analysis, the brain tissue samples and plasma samples were taken out from the −80° C. freezer. After the brain tissue samples were completely thawed, a given amount of brain tissue was weighed, and 50% methanol/water was added for homogenization. Drug concentrations in plasma and brain tissues were determined using the LC-MS/MS method, and the relevant pharmacokinetic parameters were calculated using the non-compartmental model with linear-log trapezoidal method in Phoenix WinNonlin 8.2.0 pharmacokinetic software.

[2] = Pharmacokinetic determination in SD rats; format: in vivo; conditions: rat, female SD rats, plasma; for AUC(0-t): read-out: Area under the curve AUC0-t; for clearance: read-out: Clearance Cl; for half-life: read-out: Half-life T1/2 (converted)
Description: Test Example 3: Pharmacokinetic Determination in SD Rats
In this study, female SD rats were selected as test animals. The LC/MS/MS method was used to quantitatively determine the plasma drug concentrations of the test compounds at different time points after intravenous injection (2 mg/kg) or oral administration (5 mg/kg) in rats, so as to evaluate the pharmacokinetic profile of the test drugs in rats.
as §1, §2
Vehicle for intravenous administration: 5% DMSO+10% Solutol+85% Saline.
Vehicle for oral administration: 5% DMSO+95% PEG400.
The test compound, formulated as a clear solution or suspension, was administered to overnight-fasted SD rats via tail vein injection or oral gavage. For intravenous administration, blood samples (0.25 mL) were collected via jugular vein puncture at pre-dose (0 h) and 0.083, 0.25, 0.5, 1, 2, 4, 6, 8, and 24 h post-dose. The samples were placed into sodium heparin anticoagulant tubes, and the mixture was vortexed thoroughly and centrifuged at 6,000 rpm for 3 minutes at 4° C. For oral gavage, blood samples were collected via jugular vein puncture at pre-dose (0 h) and 0.083, 0.25, 1, 2, 4, 6, 8, and 24 h post-dose. The samples were placed into sodium heparin anticoagulant tubes, and the mixture was vortexed thoroughly and centrifuged at 6,000 rpm for 3 minutes. Plasma drug concentrations were determined using the LC-MS/MS method, and the relevant pharmacokinetic parameters were calculated using the non-compartmental model with linear-log trapezoidal method in Phoenix WinNonlin 8.2.0 pharmacokinetic software.

Row | SMILES | Brain tissue area under the curve AUC0-t [1] [ng·h/g] | Kp [1] | AUC(0-t) [1] [ng·h/mL] | AUC(0-t) ([2]; 2 mg/kg, IV (2 mpk)) [ng·h/mL] | AUC(0-t) ([2]; 5 mg/kg, PO (5 mpk)) [ng·h/mL] | clearance ([2]; 2 mg/kg, IV (2 mpk)) [mL/min/kg] | half-life ([2]; 2 mg/kg, IV (2 mpk)) [min] | half-life ([2]; 5 mg/kg, PO (5 mpk)) [min]
1 | CON=C1CC(CO)N(C(=O)c2ccc(-c3cccc(C#N)c3C)c3c2OCO3)C1 (single isomer, unassigned) [Example C0099] | 150 | 0.1 | 1460 |  |  |  |  | 
2 | CO/N=C1/C[C@@H]([C@@H](C)O)N(C(=O)c2ccc(-c3cccc(C#N)c3C)cc2)C1 (single isomer, unassigned) [Example C0112] | 818 | 0.52 | 1570 |  |  |  |  | 
3 | CO/N=C1/C[C@@H](CO)N(C(=O)c2ccc(-c3cccc(C#N)c3Cl)cc2)C1 [Example A0203, 2-Chloro-3-(4-[(2S, 4Z)-2-(hydroxymethyl)-4-(methoxyimino)pyrrolidine-1-carbonyl]phenyl)benzonitrile] | 2579 | 0.39 | 6670 | 7160 | 16000 | 4.66 | 314 | 358
4 | CO/N=C1/C[C@@H](CO)N(C(=O)c2ccc(-c3cccc(C#N)c3C)cc2)C1 [Example C0058, (S, Z)-4′-(2-(Hydroxymethyl)-4-(methoxyimino)pyrrolidine-1-carbonyl)-2-methyl-[1,1′-biphenyl]-3-carbonitrile] | 1109 | 0.32 | 3520 | 4640 | 11400 | 7.4 | 180 | 187
5 | CO/N=C1/C[C@@H](CO)N(C(=O)c2ccc(-c3cc(F)cc(C#N)c3C)c3c2OCCO3)C1 [Example C0152, (S,Z)-5-Fluoro-3-(8-(2-(hydroxymethyl)-4-(methoxyimino)pyrrolidine-1-carbonyl)-2,3-dihydrobenzo[b][1,4]dioxin-5-yl)-2-methylbenzonitrile] | 169 | 0.08 | 2050 |  |  |  |  | 
